{
  "source": "patent US11311570B2",
  "about": "“Method of inducing satiety” (PERORA GMBH, priority 2014, dated 2022)",
  "key": {"[1]": {"test": "Tryptophan release / dissolution in simulated gastric and intestinal fluid", "type": "physicochemical", "details": "30 mg powder in 22 mL FaSSGF, 37° C.", "experimental": "A sample of 200 mg of tryptophan-containing granules was suspended in 22 mL fasted-state simulated gastric fluid (FaSSGF) at 37° C. and agitated (shaker ST5 from CAT, Germany). FaSSGF was prepared by dissolving 1 g of NaCl (Sigma-Aldrich) in 450 mL of water, adding 30 mg of SIF powder (biorelvant.com), adjusting the pH to 2.0 with 0.1 N HCl (Sigma-Aldrich) and adding water to a final volume of 500 mL.\nA sample of 200 mg of tryptophan-containing granules was suspended in 22 mL fasted-state simulated intestinal fluid (FaSSIF) at 37° C. and agitated (shaker ST5 from CAT, Germany).\n30 mg of tryptophan powder were suspended in 22 mL FaSSGF at 37° C. and agitated (shaker ST5 from CAT, Germany). Aliquots were removed at time intervals of 5 min, and tryptophan concentration was quantified using absorption measurement at a wavelength of 280 nm in a NanoDrop® 2000 device (Thermo Scientific, USA)."}, "[2]": {"details": "published rat feeding study, independent from intake; cited from earlier work"}},
  "data": [
    {"smiles": "N[C@@H](Cc1c[nH]c2ccccc12)C(=O)O", "note": "[tryptophan powder, L-Tryptophan]", "values": [
      {"measurement": "time after which quantitatively dissolved", "setting": "[1]", "result": 10, "unit": "min"}
    ]},
    {"smiles": "CCCCCCCCCCCCCCCCCC(=O)OCC(COC(=O)CCCCCCCCCCCCCCCCC)OC(=O)CCCCCCCCCCCCCCCCC", "note": "[tristearin]", "values": [
      {"measurement": "true digestibility of stearic acid from tristearin", "setting": "[2]", "result": 0.15, "unit": "g/g"}
    ]}
  ]
}
